Test results from US20110027354A1, “ANTI-PA[…]” (priority 2008, published 2011).

System: protein carbonyl
Test: Determination of protein carbonyl (Oxyblot assay)
Type: in vivo, mice
Settings: striatum; for protein carbonyl expression: drug alone (no MPTP); for effect on MPTP-induced increase in protein carbonyl expression: one day after final MPTP, vs. MPTP alone
Procedure: Total protein ([…]) was used to perform the Oxyblot assay. The amount of oxidized proteins was measured using the Oxyblot kit (Chemicon International, CA), following the manufacturer's instructions. Briefly, the protein carbonyl content was measured by first forming labeled protein hydrazone derivatives using 2,4-dinitrophenylhydrazide (DNP). The INP-derivatized protein samples were separated by polyacrylamide gel electrophoresis followed by Western blotting. Blots were then incubated with primary antibody specific to the DNP moiety, followed by incubation with a horseradish peroxidase-antibody conjugate directed against the primary antibody. The blots were then treated with chemiluminescent reagents (Amersham) (Gemma et al., 2004).

| Structure (SMILES) | protein carbonyl expression | effect on MPTP-induced increase in protein carbonyl expression | attenuation of protein carbonyl increase compared with selegiline (vs. selegiline+MPTP) |
| --- | --- | --- | --- |
| C#CCN(C)CCc1ccccc1 [MPPE, N-methyl-N-propynyl-2-phenylethylamine] | a little induction | attenuated | appeared to be more underlined in the MPPE-pretreated mice |
| C#CCN(C)[C@H](C)Cc1ccccc1 [selegiline, reference compound] | a little induction | attenuated | – |
